Results as given in PMC3157398 (PLoS ONE, 2011).

Assays:
[1] = biological target: mycobacterial ATP synthase (Mycolicibacterium smegmatis, UniProt A0R205+A0R206)
ATP synthase subunit c = biological target: T1, ATP synthase subunit c (Mycobacterium tuberculosis, UniProt P9WPS1); format: binding
T1 construct: made in house

ATP synthase holoenzyme = ATP synthase holoenzyme (Bacillus sp., UniProt P00845+P09218); format: binding, Bacillus PS3
[2] = test system: ATP synthase with resistance mutation D32V in subunit c; format: biochemical, Mycobacterium smegmatis

T1 sequence (P9WPS1 whole entry): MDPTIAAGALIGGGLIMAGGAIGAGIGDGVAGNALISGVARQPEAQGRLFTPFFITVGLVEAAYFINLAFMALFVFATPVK

CC(C)(C)c1cc(C=C(C#N)C#N)cc(C(C)(C)C)c1O [SF6847]
residual ATP synthesis activity [1]: < 10%

COc1nc2ccc(N)cc2cc1[C@@H](c1ccccc1)[C@@](O)(CCN(C)C)c1cccc2ccccc12 [TMC207 amino-analog]
dissociation constant of mono-exponential fit (ATP synthase subunit c): 0.002295 | dissociation constant of mono-exponential fit (ATP synthase holoenzyme): 0.000103

COc1nc2ccc(Br)cc2cc1[C@@H](c1ccccc1)[C@@](O)(CCN(C)C)c1cccc2ccccc12 [TMC207]
inhibition of ATP synthesis [2]: no inhibition
